“Also recorded” adds a separate entry of the source.
Assays:
[1] = tested on: Velvetleaf (Abutilon theophrasti); experiment: Weed soil drench assay, velvetleaf; type: in vivo; conditions: for Percentage mortality: Velvet Leaf, 40 mL of 5% solution, soil drench; for chlorosis and phytotoxicity: velvet leaf, 40 ml of 5%, 2 days after application
Procedure: Velvetleaf plants were obtained from the wild in prairie fields in Iowa. Plants were carefully transplanted into pots (6″ wide×4.5″ deep) with approximately 800 mL of soil for each plant. Plants were maintained in a greenhouse under a constant temperature and light environment (25±5° C., 12 hr: 12 hr light: dark cycle). Plants were watered every 2-3 days as needed.
(§1) Formulations of the various active ingredients were created using the monoterpenoid derivatives, potassium hydroxide, and Triton-X 100™ to aid in the solvation of the active ingredient. Formulations included 5% active ingredient by weight (0.5-1 g/100 ml water), with a 1:1 molar ratio of potassium hydroxide used to aid in the solvation (135-269 mg/100 mL for both thymyloxyacetic acid and carvacryloxyacetic acid). […] Observations were performed 2 days and 3 weeks after soil drench to determine the effects of the treatments on the various types and stages of plants. Phytotoxicity is reported as percentage of total plants treated compared to a control treatment that was exposed to a similar formulation (without the active monoterpenoid derivatives).

Corn = experiment: Pre-emergence assay, corn; type: in vivo; conditions: for pre-emergent effect on corn (words): 1%, 3-weeks after application; for qualitative growth assessment, pre-emergence: Corn, soil treated with 40 ml of 1% solution 1 day after planting, 3 weeks after application
Procedure: Corn plants were planted under ½″ of potting soil and watered every 2-3 days as necessary. Plants were grown in potting plants (6″ wide×4.5″ deep) with approximately 800 mL of soil for each plant. Plants germinated approximately 4-7 days after being planted. Plants were grown in a greenhouse under a constant temperature and light environment (25±5° C., 12 hr: 12 hr light: dark cycle).
(§2) 1-day after seeds/beans were planted, soil was drenched with 40 ml of formulation with 1% active ingredient. This was done to assess germination inhibition in the soil. […] Qualitative growth assessment was made by comparing the treated plants to the untreated controls.

Soybean plants [2] = experiment: Soil drench assay, soybean plants; type: in vivo; parameters: key: NOE: No Observable Effect; XXX: Dead; -: the lowest phytotoxic effect; --: phytotoxicity that did not result in death; ---: phytotoxicity that did not result in death; ------: the highest; conditions: 3-weeks after treatment, Old Plants, 7%, 40 mL
soybeans [3] = experiment: Germination assay, soybeans coated with compound; type: in vivo, soybean; conditions: beans coated in 1% weight compound/weight bean
Text: Soybeans were susceptible to Aphis glycines infestation and were not determined to be a biotype that was resistant to infestation, which could confide results. Germination typically occurred between 3-5 days after moistening.

[4] = tested on: Lamb's Quarters (Chenopodium album); experiment: Weed soil drench assay, lamb's quarters; type: in vivo; conditions: for Percentage mortality: Lamb's quarters, 40 mL of 5% solution, soil drench; for chlorosis and phytotoxicity: lamb's quarters, 40 ml of 5%, two days after application
Procedure: Lamb's quarters seeds were obtained from the Department of Agronomy at Iowa State University. Individual seeds were sown for each pot (6″ wide×4.5″ deep) with approximately 800 mL of soil for each plant. Only plants that germinated were used for the study. Plants were treated 1-2 weeks post emergence. Plants were watered every 2-3 days as needed.
as §1

[5] = tested on: treated weeds from each species; experiment: Weed soil drench assay, all treated weed species; type: in vivo; conditions: 5% soil drench; observed at two days after the initial treatment
Procedure: as §1

soybeans [6] = experiment: Pre-emergence assay, soybean; type: in vivo; conditions: for pre-emergent effect on soybeans (words): 1%, 3-weeks after application; for qualitative growth assessment, pre-emergence: Soy, soil treated with 40 ml of 1% solution 1 day after planting, 3 weeks after application
Procedure: Soybean plants were planted under 1 cm of potting soil and watered every 2-3 days as necessary. Plants were grown in pots (6″ wide×4.5″ deep) with approximately 800 mL of soil for each plant. Plants germinated approximately 3-5 days after being planted. Plants were grown in a greenhouse under a constant temperature and light environment (25±5° C., 12 hr: 12 hr light: dark cycle).
as §2

Soybean plants [7] = experiment: Soil drench assay, soybean plants; type: in vivo; parameters: key to phytotoxicity (qualitative), soil drench: NOE: No Observable Effect; XXX: Dead; -: the lowest phytotoxic effect; --: phytotoxicity that did not result in death; ---: phytotoxicity that did not result in death; ------: the highest; conditions: for phytotoxicity (qualitative), soil drench: Soybean, 40 mL
Procedure: Soybean plants were planted under 1 cm of potting soil and watered every 2-3 days as necessary. Plants were grown in pots (6″ wide×4.5″ deep) with approximately 800 mL of soil for each plant. Seeds germinated approximately 3-5 days after being planted. Plants were grown in a greenhouse under a constant temperature and light environment (25±5° C., 12 hr: 12 hr light: dark cycle). Plants were grown until reaching 1-2 weeks old and 3-4 weeks old; these plants served as the “young” and “old” plants in this study, respectively.
Formulations of the various active ingredients were created using the monoterpenoid derivatives, potassium hydroxide, and Triton-X 100™ to aid in the solvation of the active ingredient. Formulations consisted of 0.5%-1% active ingredient by weight (0.5-1 g/100 ml water), with a 1:1 molar ratio of potassium hydroxide used to aid in the solvation (135-269 mg/100 mL for both thymyloxyacetic acid and carvacryloxyacetic acid). […] Formulations were applied to the soil next to the base of the stem of the plant to avoid foliar contact. Observations were performed 2 days and 3 weeks after soil drench to determine the effects of the treatments on the various types and stages of plants.

[8] = tested on: Giant Foxtail (Setaria faberi); experiment: Weed soil drench assay, giant foxtail; type: in vivo; conditions: for Percentage mortality: Giant Foxtail, 40 mL of 5% solution, soil drench; for chlorosis and phytotoxicity: giant foxtail, 40 mL of 5%, 2 days after application
Procedure: Giant foxtail seeds were obtained from the Department of Agronomy at Iowa State University. Three seeds were sown for each pot (6″ wide×4.5″ deep) with approximately 800 mL of soil for each plant. Only plants that germinated were used for the study. Plants were treated 1-2 weeks post emergence. Plants were watered every 2-3 days as needed.
as §1

Wood sorrel = experiment: Pre-emergence assay, wood sorrel; type: in vivo; conditions: for pre-emergent effect on wood sorrel (words): 1%, 3-weeks after application; for qualitative growth assessment, pre-emergence: Sorrel, soil treated with 40 ml of 1% solution 1 day after planting, 3 weeks after application
Procedure: as §2

[9] = tested on: Pigweed (Amaranthus palmeri); experiment: Weed soil drench assay, pigweed; type: in vivo; conditions: for Percentage mortality: Pigweed, 40 mL of 5% solution, soil drench; for chlorosis and phytotoxicity: pigweed, 40 ml of 5%, 2 days after application
Procedure: Pigweed plants were obtained from the wild in prairie fields in Iowa. Plants were carefully transplanted into pots (6″ wide×4.5″ deep) with approximately 800 mL of soil for each plant. Plants were maintained in a greenhouse under a constant temperature and light environment (25±5° C., 12 hr: 12 hr light: dark cycle). Plants were watered every 2-3 days as needed.
as §1

[10] = listed as Carvacryloxyacetic acid
[11] = 2-days after treatment, Old Plants, 0.50%
[12] = 2-days after treatment, Old Plants, 1%
[13] = 2-days after treatment, Young Plants, 0.50%
[14] = 3-weeks after treatment, Old Plants, 0.50%
[15] = 3-weeks after treatment, Young Plants, 0.50%
[16] = 3-weeks after treatment, Young Plants, 1%

Structure (SMILES)	Percentage mortality ([1]; 2-days after treatment)	Percentage mortality ([1]; 3-weeks after treatment)	chlorosis and phytotoxicity [1]	pre-emergent effect on corn (words) (Corn)	qualitative growth assessment, pre-emergence (Corn)	phytotoxicity (qualitative), soil drench (Soybean plants [2])	inhibition of soybean germination/growth (words) (soybeans [3])	Percentage mortality ([4]; 2-days after treatment)	Percentage mortality ([4]; 3-weeks after treatment)	chlorosis and phytotoxicity [4]	treated weeds killed, each species [5]	pre-emergent effect on soybeans (words) (soybeans [6])	qualitative growth assessment, pre-emergence (soybeans [6])	phytotoxicity (qualitative), soil drench (Soybean plants [7]; [11])	phytotoxicity (qualitative), soil drench (Soybean plants [7]; [12])	phytotoxicity (qualitative), soil drench (Soybean plants [7]; [13])	phytotoxicity (qualitative), soil drench (Soybean plants [7]; [14])	phytotoxicity (qualitative), soil drench (Soybean plants [7]; [15])	phytotoxicity (qualitative), soil drench (Soybean plants [7]; [16])	Percentage mortality ([8]; 2-days after treatment)	further results
Cc1ccc(C(C)C)cc1OCC(=O)O [carvacryloxyacetic acid, 2-(5-isopropyl-2-methylphenoxy)acetic acid]	100%	100%	significant chlorosis and phytotoxicity	significant inhibition in corn growth	− −	XXX	prevented the growth of soybeans	100%	100%	significant chlorosis and phytotoxicity	100%	completely prevented from growing	XXX (plant death)	--	---	---	XXX	XXX	XXX	100%	pre-emergent effect on corn (words) (Corn; [10]): significantly inhibited the growth; pre-emergent effect on soybeans (words) (soybeans [6]; [10]): prevented the emergence of soybean plants entirely; Percentage mortality ([8]; 3-weeks after treatment): 100%; chlorosis and phytotoxicity [8]: significant chlorosis and phytotoxicity; pre-emergent effect on wood sorrel (words) (Wood sorrel): completely prevented from growing; pre-emergent effect on wood sorrel (words) (Wood sorrel; [10]): significantly inhibited the growth; qualitative growth assessment, pre-emergence (Wood sorrel): − −; Percentage mortality ([9]; 2-days after treatment): 100%; Percentage mortality ([9]; 3-weeks after treatment): 100%; chlorosis and phytotoxicity [9]: significant chlorosis and phytotoxicity
Cc1ccc(C(C)C)c(OCC(=O)O)c1 [thymyloxyacetic acid, 2-(2-isopropyl-5-methylphenoxy)acetic acid]	100%	100%	significant chlorosis and phytotoxicity	significantly inhibited; also recorded: capable of inhibiting the growth	−	XXX	prevented the growth of soybeans	100%	100%	significant chlorosis and phytotoxicity	100%	most susceptible	− − −	-	-	--	-	XXX	XXX	100%	pre-emergent effect on soybeans (words) (soybeans [6]; listed as Thymyloxyacetic acid): major inhibition of growth; phytotoxicity (qualitative), soil drench (Soybean plants [7]; 2-days after treatment, Young Plants, 1%): ---; effect on soybean plants, soil drench (Soybean plants [7]; old plant, 3 weeks after exposure, 0.5%): significant wilting and chlorosis; effect on soybean plants, soil drench (Soybean plants [7]; old plants, 3 weeks after exposure, 1%): experienced mortality; mortality of soybean plants, soil drench (Soybean plants [7]; young plants, 3 weeks after exposure): 100%; effect on soybean plants, soil drench (Soybean plants [7]; young plants, 2 days after exposure, 0.5%): Minor inhibition; effect on soybean plants, soil drench (Soybean plants [7]; young plants, 2 days after exposure, 1%): major inhibition; Percentage mortality ([8]; 3-weeks after treatment): 100%; chlorosis and phytotoxicity [8]: significant chlorosis and phytotoxicity; pre-emergent effect on wood sorrel (words) (Wood sorrel): significantly inhibited; pre-emergent effect on wood sorrel (words) (Wood sorrel; listed as Thymyloxyacetic acid): major inhibition of growth; qualitative growth assessment, pre-emergence (Wood sorrel): −; Percentage mortality ([9]; 2-days after treatment): 100%; Percentage mortality ([9]; 3-weeks after treatment): 100%; chlorosis and phytotoxicity [9]: significant chlorosis and phytotoxicity

From patent US12213479B2, “Monoterpenoid/phenylpropanoid-containing compounds and methods of their making and use as herbicides” (KITTRICH CORPORATION, priority 2016, dated 2025)
